Reference: patent US20200002377A1, “COMPOUNDS USEFUL FOR THE TREATMENT AND/OR CARE OF THE SKIN, HAIR, NAILS AND/OR MUCOUS MEMBRANES” (LUBRIZOL ADVANCED MATERIALS, INC., priority 2016, published 2020)
Residues, ends and D or L forms follow the SMILES beside them. *: point of attachment. Palmitoyl = CCCCCCCCCCCCCCCC(=O)*; NHhexadecyl = CCCCCCCCCCCCCCCCN*; Myristoyl = CCCCCCCCCCCCCC(=O)*; NHHex = CCCCCCN*

Tests used:
[1] = system: Staphylococcus epidermidis; assay: Adherence of Staphylococcus epidermidis in keratinocytes (HaCaT) in competition with S. aureus bioparticles; assay type: cell-based; details: 50 μg/ml, 24 h, basal = 0
Protocol: After that treatment, cells are washed with phosphate-buffered saline (PBS, Sigma) and are then incubated with a solution of Staphylococcus epidermidis (ATCC®12228™, Culture Collections) treated with green-fluorescence calcein AM (Life technologic) and Alexa Fluor 594™ Bioparticles Staphylococcus aureus (ThermoFisher) in PBS for 30 minutes at 37° C. and protected from light. At the end of the incubation period, cells are washed with PBS and fixed in 4% (v/v) paraformaldehyde (PFA, Sigma) for 30 minutes. After rinsing with PBS, the nuclei are stained with Hoechst 33342, trihydrochloride trihydrate (ThermoFisher) in PBS for 10 minutes before analysis.
Cellular imaging is performed by fluorescence microscopy using the Operetta® High Content Imaging System (PerkinElmer). From each fluorescence image, Staphylococcus epidermidis is quantified as a number of spots and normalized against the number of keratinocyte nuclei and the total bacteria number (understood as the addition of detected S. epidermidis spots and S. aureus bioparticles). Each value obtained is normalized respect to basal conditions (non-treated keratinocytes). An image is taken in three different fields per well. 12 representative images from each condition are analyzed with Harmony software (PerkinElmer).
The normalized percentage of Staphylococcus epidermidis respect to basal conditions in treated keratinocytes is represented in Table 17.

[2] = system: Nuclear Factor Kappa B subunit 1 (NFKB1); assay: Innate immune response gene expression in HEKa, real time PCR array; assay type: cell-based, human; details: 50 μg/ml, 24 h
Protocol: HEKa cells (Life Technologies) are seeded at 6.0×10^5 cells/well in 6-well plates and incubated in culture medium Epillfe™ with defined Growth Supplement (EDGS, Life Technologies), at 37° C. in a water-saturated atmosphere of 95% air and 5% CO2. After 24 hours of incubation under these conditions, medium is removed and cells are incubated with 50 μg/ml (w/v) of a peptide of the invention (see Table 16) in fresh culture medium keeping two wells where HEKa cells are incubated with medium only (basal conditions) at 37° C. and 5% CO2.
After 24 h of incubation, the cells are lysed directly in the wells following the protocol described on the RNeasy™ Mini kit (Qiagen) according to the manufacturer's protocol. The lysed cells are homogenized and the RNases are inactivated. The genomic DNA is removed from the samples by using gDNA Eliminator spin columns (Qiagen). Then the samples are passed through special RNA binding columns (Qiagen) and, after several microcentrifugation washes to eliminate contaminants and impurities, the purified RNA is eluted with 50 μl of ultrapure water. Quantification and analysis of purity of RNA samples are performed after RNA elution with a biophotometer (Eppendorf). 1 μg of high-quality RNA is retrotranscribed with iScript™ advanced (BioRad) in a final volume of 20 μl·Complete reaction mix is incubated in a thermal cycler (Eppendorf) at 42° C. for 30 minutes, and the reactions are stopped at 85° C. for 5 minutes. Complementary DNA is amplified by qPCR in a real-time PCR thermocycler (BioRad) using SYBR®Green supermix (BioRad) and a customized plate for use with SYBR®Green (BioRad). SYBR®Green binds to double-stranded DNA molecules and emits fluorescence which is quantified and is proportional to the amount of the product in the PCR reaction. Cycling conditions in BioRad CFX96™ instrument are 95° C. for 3 minutes, followed by 40 cycles of denaturing at 95° C. for 5 seconds, annealing and elongation at 60° C. for 30 seconds. GAPDH (Glyceraldehyde 3-phosphate dehydrogenase), TBP (TATA box binding protein) and HRPT1 (hypoxanthine phosphoribosyltransferase 1) are used as endogenous controls. Fold change relative to the expression of the sample genes and reference genes is calculated using normalized expression (ΔΔ(Ct)) method with default threshold values using CFX Manager Software (BioRad).
Genes analyzed are Chemokine (C-C motif) Ligand 5 (CCL5), Myeloid Differentiation primary response gene 88 (MyD88), Nuclear Factor Kappa B subunit 1 (NFKB1) and interferon Regulatory Factor 3 (IRF3).

Molecule	S. epidermidis (%), normalized percentage respect to basal conditions [1]	NFKB1 fold induction respect to basal conditions [2]
CCCCCCCCCCCCCC(=O)N[C@@H](CCC(=O)O)C(=O)N[C@@H](CCC(=O)O)C(=O)N[C@@H](CCSC)C(=O)N[C@@H](CCC(N)=O)C(=O)N[C@@H](CCCNC(=N)N)C(=O)N[C@@H](CCCNC(=N)N)C(N)=O [PEP-5, Myr-Glu-Glu-Met-Gln-Arg-Arg-NH2] (Myristoyl-EEMQRR-NH2)	27.52%	2.64
CCCCCCCCCCCCCCCC(=O)N[C@@H](CCC(=O)O)C(=O)N[C@@H](CCC(=O)O)C(=O)N[C@@H](CCSC)C(=O)N[C@@H](CCC(N)=O)C(=O)N[C@@H](CCCNC(=N)N)C(=O)N[C@@H](CCCNC(=N)N)C(N)=O [PEP-6, Palm-Glu-Glu-Met-Gln-Arg-Arg-NH2] (Palmitoyl-EEMQRR-NH2)	29.75%	2.62
CCCCCCCCCCCCCCCCNC(=O)[C@H](CCCNC(=N)N)NC(=O)[C@H](CCCNC(=N)N)NC(=O)[C@H](CCC(N)=O)NC(=O)[C@H](CCSC)NC(=O)[C@H](CCC(=O)O)NC(=O)[C@H](CCC(=O)O)NC(C)=O [PEP-7, Ac-Glu-Glu-Met-Gln-Arg-Arg-NHC16H33] (Ac-EEMQRR-NHhexadecyl)	11.43%	3.09
CCCCCCCCCCCCCCCC(=O)N[C@@H](CCC(=O)O)C(=O)N[C@@H](CCC(=O)O)C(=O)N[C@@H](CCSC)C(=O)N[C@@H](CCC(N)=O)C(=O)N[C@@H](CCCNC(=N)N)C(=O)N[C@@H](CCCNC(=N)N)C(=O)N[C@@H](C)C(=O)N[C@@H](CC(=O)O)C(N)=O [PEP-27, Palm-Glu-Glu-Met-Gln-Arg-Arg-Ala-Asp-NH2] (Palmitoyl-EEMQRRAD-NH2)	27.62%	2.76
CCCCCCCCCCCCCCCC(=O)N[C@@H](CCC(=O)O)C(=O)N[C@@H](CCC(=O)O)C(=O)N[C@@H](CCSC)C(=O)N[C@@H](CCC(N)=O)C(=O)N[C@@H](CCCNC(=N)N)C(=O)N[C@@H](CCCNC(=N)N)C(=O)N[C@@H](C)C(=O)N[C@@H](CC(N)=O)C(N)=O [PEP-28, Palm-Glu-Glu-Met-Gln-Arg-Arg-Ala-Asn-NH2] (Palmitoyl-EEMQRRAN-NH2)	39.68%	2.65
CCCCCCCCCCCCCC(=O)N[C@@H](CCC(=O)O)C(=O)N[C@@H](CCC(=O)O)C(=O)N[C@@H](CCSC)C(=O)N[C@@H](CCC(N)=O)C(=O)N[C@@H](CCCNC(=N)N)C(=O)N[C@@H](CCCNC(=N)N)C(=O)N[C@@H](C)C(=O)N[C@@H](CCC(=O)O)C(N)=O [PEP-29, Myr-Glu-Glu-Met-Gln-Arg-Arg-Ala-Glu-NH2] (Myristoyl-EEMQRRAE-NH2)	33.02%	2.72
CCCCCCCCCCCCCCCC(=O)N[C@@H](CCC(=O)O)C(=O)N[C@@H](CCC(=O)O)C(=O)N[C@@H](CCSC)C(=O)N[C@@H](CCC(N)=O)C(=O)N[C@@H](CCCNC(=N)N)C(=O)N[C@@H](CCCNC(=N)N)C(=O)N[C@@H](C)C(=O)N[C@@H](CC(N)=O)C(=O)O [PEP-33, Palm-Glu-Glu-Met-Gln-Arg-Arg-Ala-Asn-OH] (Palmitoyl-EEMQRRAN-OH)	58.74%	2.63
CCCCCCNC(=O)[C@H](CC(=O)O)NC(=O)[C@H](C)NC(=O)[C@H](CCCNC(=N)N)NC(=O)[C@H](CCCNC(=N)N)NC(=O)[C@H](CCC(N)=O)NC(=O)[C@H](CCSC)NC(=O)[C@H](CCC(=O)O)NC(=O)[C@H](CCC(=O)O)NC(C)=O [PEP-34, Ac-Glu-Glu-Met-Gln-Arg-Arg-Ala-Asp-NHC6H13] (Ac-EEMQRRAD-NHHex)	61.59%	2.59
CCCCCCCCCCCCCCCCNC(=O)[C@H](CC(=O)O)NC(=O)[C@H](C)NC(=O)[C@H](CCCNC(=N)N)NC(=O)[C@H](CCCNC(=N)N)NC(=O)[C@H](CCC(N)=O)NC(=O)[C@H](CCSC)NC(=O)[C@H](CCC(=O)O)NC(=O)[C@H](CCC(=O)O)NC(C)=O [PEP-35, Ac-Glu-Glu-Met-Gln-Arg-Arg-Ala-Asp-NHC16H33] (Ac-EEMQRRAD-NHhexadecyl)	90.22%	2.79
CCCCCCNC(=O)[C@H](CC(=O)O)NC(=O)[C@H](C)NC(=O)[C@H](CCCNC(=N)N)NC(=O)[C@H](CCCNC(=N)N)NC(=O)[C@H](CCC(N)=O)NC(=O)[C@H](CCSC)NC(=O)[C@H](CCC(=O)O)NC(=O)[C@@H](N)CCC(=O)O [PEP-36, H-Glu-Glu-Met-Gln-Arg-Arg-Ala-Asp-NHC6H13] (H-EEMQRRAD-NHHex)	29.93%	2.53
CCCCCCCCCCCCCCCC(=O)N[C@@H](CCC(=O)O)C(=O)N[C@@H](CCC(=O)O)C(=O)N[C@@H](CCSC)C(=O)N[C@@H](CCC(N)=O)C(=O)N[C@@H](CCCNC(=N)N)C(=O)N[C@@H](Cc1c[nH]cn1)C(N)=O [PEP-58, Palm-Glu-Glu-Met-Gln-Arg-His-NH2] (Palmitoyl-EEMQRH-NH2)	–	1.87
CCCCCCCCCCCCCCCC(=O)N[C@@H](CCC(=O)O)C(=O)N[C@@H](CCC(=O)O)C(=O)N[C@@H](CCSC)C(=O)N[C@@H](CCC(N)=O)C(=O)N[C@@H](CCCNC(=N)N)C(=O)N[C@@H](CCCCN)C(N)=O [PEP-59, Palm-Glu-Glu-Met-Gln-Arg-Lys-NH2] (Palmitoyl-EEMQRK-NH2)	4.63%	1.77
CCCCCCCCCCCCCC(=O)N[C@@H](CCC(=O)O)C(=O)N[C@@H](CCC(=O)O)C(=O)N[C@@H](CCSC)C(=O)N[C@@H](CCC(N)=O)C(=O)N[C@@H](CCCNC(=N)N)C(=O)N[C@@H](CCCCN)C(N)=O [PEP-60, Myr-Glu-Glu-Met-Gln-Arg-Lys-NH2] (Myristoyl-EEMQRK-NH2)	24.84%	1.26
CCCCCCNC(=O)[C@H](CCCNC(=N)N)NC(=O)[C@H](CCCNC(=N)N)NC(=O)[C@H](CCC(N)=O)NC(=O)[C@H](CCSC)NC(=O)[C@H](CCC(=O)O)NC(=O)[C@H](CCC(=O)O)NC(C)=O [PEP-64, Ac-Glu-Glu-Met-Gln-Arg-Arg-NHC6H13] (Ac-EEMQRR-NHHex)	–	1.75
CCCCCCNC(=O)[C@H](CCCNC(=N)N)NC(=O)[C@H](CCCNC(=N)N)NC(=O)[C@H](CCC(N)=O)NC(=O)[C@H](CCSC)NC(=O)[C@H](CCC(=O)O)NC(=O)[C@@H](N)CCC(=O)O [PEP-65, H-Glu-Glu-Met-Gln-Arg-Arg-NCH6H13] (H-EEMQRR-NHHex)	–	2.41
Ac-DEMERRA-NH2 [PEP-40, Ac-Asp-Glu-Met-Glu-Arg-Arg-Ala-NH2]	20.56%	2.55
Ac-DEMQRR-NH2 [PEP-51, Ac-Asp-Glu-Met-Gln-Arg-Arg-NH2]	65.15%	2.41
Ac-DEMQRRAD-NH2 [PEP-8, Ac-Asp-Glu-Met-Gln-Arg-Arg-Ala-Asp-NH2]	20.45%	2.04
Ac-EDMQRR-NH2 [PEP-49, Ac-Glu-Asp-Met-Gln-Arg-Arg-NH2]	5.86%	1.55
Ac-EEIERR-NH2 [PEP-55, Ac-Glu-Glu-Ile-Glu-Arg-Arg-NH2]	2.41%	3.39
Ac-EELQRR-OH [PEP-63, Ac-Glu-Glu-Leu-Gln-Arg-Arg-OH]	–	1.50
Ac-EEMQRH-NH2 [PEP-53, Ac-Glu-Glu-Met-Gln-Arg-His-NH2]	–	3.37
Ac-EEMQRRAE-OH [PEP-30, Ac-Glu-Glu-Met-Gln-Arg-Arg-Ala-Glu-OH]	–	2.53
Ac-EEMQRRV-NH2 [PEP-44, Ac-Glu-Glu-Met-Gln-Arg-Arg-Val-NH2]	–	1.24
Ac-Glu-Glu-Leu-Gln-Arg-Arg-NH2 (Ac-EELQRR-NH2) [PEP-66]	45.38%	–
Ac-QEMQRR-NH2 [PEP-52, Ac-Gln-Glu-Met-Gln-Arg-Arg-NH2]	–	2.57
H-EEMQRRAN-NH2 [PEP-25, H-Glu-Glu-Met-Gln-Arg-Arg-Ala-Asn-NH2]	–	2.31
H-Glu-Glu-Met-Gln-Arg-Arg-NHC16H33 (H-EEMQRR-NHhexadecyl) [PEP-67]	14.91%	–
